Among the data in publication PMC4100786 (Biochemistry, 2014) are Kd values, retold here.

The assay deals with ISWI (Xenopus laevis, UniProt Q9DF71). It counts as binding.

Structures are written as SMILES.

Sequence of ISWI (Q9DF71 1-1046): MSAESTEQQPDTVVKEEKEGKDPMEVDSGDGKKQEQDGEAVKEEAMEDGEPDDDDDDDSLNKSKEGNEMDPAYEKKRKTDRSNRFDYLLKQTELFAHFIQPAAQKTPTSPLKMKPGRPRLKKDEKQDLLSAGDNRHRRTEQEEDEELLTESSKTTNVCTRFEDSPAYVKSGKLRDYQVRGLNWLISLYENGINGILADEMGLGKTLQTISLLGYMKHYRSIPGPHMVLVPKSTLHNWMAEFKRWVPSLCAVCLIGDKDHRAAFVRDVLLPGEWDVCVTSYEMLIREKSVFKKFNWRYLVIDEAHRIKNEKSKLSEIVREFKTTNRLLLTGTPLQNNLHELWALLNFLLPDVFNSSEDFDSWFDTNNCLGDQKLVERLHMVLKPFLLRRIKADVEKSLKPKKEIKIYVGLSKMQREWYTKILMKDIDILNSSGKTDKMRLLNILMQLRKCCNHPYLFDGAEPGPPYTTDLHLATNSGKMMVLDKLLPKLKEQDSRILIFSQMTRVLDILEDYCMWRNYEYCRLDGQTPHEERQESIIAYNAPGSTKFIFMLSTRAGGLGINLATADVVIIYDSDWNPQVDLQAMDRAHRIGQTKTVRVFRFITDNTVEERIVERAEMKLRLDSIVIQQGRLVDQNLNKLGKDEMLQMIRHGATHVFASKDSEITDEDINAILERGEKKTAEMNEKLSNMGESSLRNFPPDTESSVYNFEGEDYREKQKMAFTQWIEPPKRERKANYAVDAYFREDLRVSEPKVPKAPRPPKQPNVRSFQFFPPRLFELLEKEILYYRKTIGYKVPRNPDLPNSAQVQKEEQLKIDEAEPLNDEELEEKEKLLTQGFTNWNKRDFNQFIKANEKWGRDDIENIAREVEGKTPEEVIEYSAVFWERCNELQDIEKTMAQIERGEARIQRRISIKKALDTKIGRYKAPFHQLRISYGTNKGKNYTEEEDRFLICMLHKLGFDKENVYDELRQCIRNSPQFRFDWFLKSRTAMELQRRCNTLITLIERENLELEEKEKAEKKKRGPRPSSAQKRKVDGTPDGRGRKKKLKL

The compound `Nc1ncnc2c1ncn2[C@@H]1O[C@H](CO[P@](=O)(O)O[P@](=O)(O)O[P@@](=O)(O)S)[C@@H](O)[C@H]1O` [ATP-γ-S] displayed a dissociation constant Kd of 140 ± 30 µM.

One may read the Kd as the concentration at which binding is half-saturated. Lower therefore signals higher affinity.
